One block for each molecule: values may come before it.
Assays:
Type in all cases: physicochemical
[1] = T1 relaxivity (r1) by inversion recovery on Bruker mq60 Minispec, 1.4 T, 37° C., TRIS buffer pH 7.4; conditions: for r1 (relaxivity of manganese complexes): pH 7.4, 37° C., 1.4 Tesla
Protocol: (§1) Liquid chromatography-electrospray mass spectrometry (LC-MS) was performed using an Agilent 1100 Series apparatus with an LC/MSD trap and Daly conversion dynode detector with UV detection at 220, 254 and 280 nm. The methods used on this system are as follows: (a) Luna C18 column (100×2 mm); eluent A: H2O/0.1% formic acid, B: MeCN/0.1% formic acid; gradient: 5% B to 95% B over 9 minutes; flow rate 0.8 mL/min (used for characterization of organic compounds), and (b) Kromasil C18 column (250×4.6 mm); eluent C: 95% MeCN/5% 10 mM ammonium acetate, D: 10 mM ammonium acetate; gradient 5% C to 8% C over 14 minutes; flow rate 0.8 ml/min (used for characterization of manganese complexes). Reversed-phase semipreparative purification was performed on a Rainin Dynamax HPLC system with UV detection at 254 nm using a Polaris C18 column. The method used for purification is as follows: The mobile phase A was 50 mM ammonium acetate buffer, pH 6.5 and mobile phase B was a mixture of 5% 50 mM ammonium acetate buffer, pH 6.5/95% MeCN. Starting from 5% B, the fraction of B increased to 8% over 23 minutes. The column was washed with 100% B for 2 minutes and then ramped to 5% B. The system was re-equilibrated at 5% B for 3 minutes. Relaxivity measurements were performed on a Bruker mq60 Minispec at 1.4 T and 37° C. Manganese concentrations were determined using an Agilent 7500a ICP-MS system. All samples were diluted with 0.1% Triton X-100 in 5% nitric acid containing 20 ppb of Lu (as internal standard). The ratio of Mn (54.94)/Lu(174.97) was used to quantify the manganese concentration. A linear calibration curve ranging from 0.1 ppb to 200 ppb was generated daily for the quantification. UV-Vis spectra were recorded on a SpectraMax M2 spectrophotometer using quartz cuvette with a 1 cm path length. Cyclic voltammetry of Mn^IIHBET, Mn^IIEDTA and Mn^IIIHBET was recorded using a Nuvant EZstat pro potentiostat in TRIS buffer (pH=7.4), containing 0.5M KNO3 as supporting electrolyte, at 100 mVs-1 scan rate. Glassy carbon was used as the working electrode, Ag/AgCl served as the reference electrode and Pt wire was used as the auxiliary electrode. The K4FeCN6/K3FeCN6 couple was used as the internal standard.
T1 was measured with an inversion recovery pulse sequence taking 10 inversion times. Relaxivity was determined from the slope of a plot of 1/T1 vs. concentration of in TRIS buffer, pH=7.4 at 37° C. The concentration of manganese in each stock solution was determined using ICP-MS.
All chemicals and solvents were purchased commercially and used without further purification. NMR spectra were recorded on either a 500 MHz or 400 MHz Varian spectrometers. Chemical shifts are reported in δ (ppm). For ^1H and ^13C NMR spectra, the residual solvent peaks were used as internal reference, except for the ^13C NMR of the ligand where tertiary-butanol was used as the internal reference. Liquid chromatography-electrospray mass spectrometry (LC-MS) was performed using an Agilent 1100 Series apparatus with an LC/MSD trap and Daly conversion dynode detector with UV detection at 220, 254 and 280 nm. The methods used on this system are as follows: (a) Luna C18 column (100×2 mm); eluent A: H2O/0.1% formic acid, B: MeCN/0.1% formic acid; gradient: 5% B to 95% B over 9 minutes; flow rate 0.8 mL/min (used for characterization of organic compounds), and (b) Kromasil C18 column (250×4.6 mm); eluent C: 95% MeCN/5% 10 mM ammonium acetate, D: 10 mM ammonium acetate; gradient 5% C to 8% C over 14 minutes; flow rate 0.8 ml/min (used for characterization of manganese complexes). Reversed-phase semipreparative purification was performed on the Rainin Dynamax HPLC system with UV detection at 254 nm using a Polaris C18 column. The method used for purification is as follows: The mobile phase A was 50 mM ammonium acetate buffer, pH 6.5 and mobile phase B was a mixture of 5% 50 mM ammonium acetate buffer, pH 6.5/95% MeCN. Starting from 5% B, the fraction of B increased to 8% over 23 minutes. […]

[2] = UV spectrum as a function of pH (phenol deprotonation pKa); conditions: fit of UV absorbance vs pH
Protocol: To probe the speciation of the manganese complexes in solution, pH titrations of 1:1 Mn^2+:ligand were performed using a 1 N NaOH under N2 atmosphere (FIG. 21).
To determine the species that exists in these two pH ranges the UV spectrum as a function of pH was monitored (see FIGS. 22-24).

[3] = Relaxivity at different field strengths in pH 7.4 HEPES buffer; conditions: 37° C.
Protocol: The relaxivities of the compounds for Formulas (XI) and (XII) were determined at different field strengths at 37° C. in pH 7.4 HEPES buffer. The relaxivity was obtained from the slope of a plot of 1/T1 vs. [Mn] for different Mn concentrations. Since Formula (XI) contains 6 Mn per molecule, the ionic (per Mn) and molecular (per molecule) relaxivities are given below.

[4] = Cyclic voltammetry of the Mn(III)/Mn(II) redox couple; conditions: for Half-cell potential vs. normal hydrogen electrode (NHE): pH 7.4, vs. NHE
Protocol: Potentials are vs. K4Fe(CN)6/K3Fe(CN)6; and in (b), a Cottrell plot of the Mn^2+/Mn^3+ couple—ia, (decreasing line) and ic (increasing line) vs. √v, where v=scan rate.
as §1

[5] = Stability of solutions at room temperature
Protocol: 40 binds Mn^II in a 1:1 ratio. This complex was prepared and characterized in situ. Mn^II was carefully titrated to 40 and Mn:40 stoichiometry was monitored by LC-MS or T2-relaxometry as describe above. […] 433.1.

[6] = Kinetics of reduction of Mn^III-HBET by glutathione; conditions: 37° C., pH 7.4; first-order in both [GSH] and [Mn^III-HBET]
Protocol: A series of kinetic experiments were conducted at 37° C. (pH 7.4) to determine the empirical rate law for the reduction of Mn^III-HBET by glutathione. […] This feature allowed us to easily monitor the reduction of Mn^III-HBET over time. We measured initial reaction rates at three different glutathione concentrations (5 mM, 10 mM and 20 mM). For each glutathione concentration, the reaction was performed at four different initial concentrations of M^III-HBET (0.3 mM, 0.4 mM, 0.5 mM and 0.6 mM). Based on these experiments, we determined that the reaction was first-order in both [GSH] and [Mn^III-HBET] with an overall second-order rate constant of (3.8±0.3)×10^−1 M^−1 s^−1.
This series of kinetic experiments were conducted at 37° C. (pH 7.4) to determine the empirical rate law for the reduction of Mn^III-HBET by glutathione. […] Initial reaction rates were measured at a three different glutathione concentrations (5 mM, 10 mM and 20 mM). […]
Here, the observed rate constant (kobs) is simply the product of the actual rate constant (k) and [GSH], t is time, and the subscripts ‘t’ and ‘o’ refer to the concentration at time T or the initial concentration, respectively. […] Based on these experiments, we determined that the reaction was first-order in both [GSH] and [Mn^III-HBET] with an overall second-order rate constant of (3.8±0.3)×10^−1 M^−1 s^−1.

[7] = Stability of manganese complexes in buffers
Protocol: The stability of the manganese complexes were measured in different buffers using concentrations similar to those found in the blood plasma (1 mM phosphate buffer, 25 mM sodium bicarbonate buffer and 0.1 mM citrate buffer). A solution, 0.5 mM, of the manganese complex was incubated in the respective buffers at 37° C. (pH=7.4) and the species were then quantified on the LC-MS using the method as described earlier. The manganese complexes (0.5 mM) were also treated with EDTA (0.5 mM) in TRIS buffer (pH=7.4) and incubated at 37° C. for 1 hour. The species were then quantified on the LC-MS using the method as described earlier.

r1 (relaxivity of manganese complexes) [1]: 2.28 mM⁻¹ s⁻¹
pKa for ionization of the phenol [2]: 4.84
Molecule: O=C([O-])CN(CCN(CC(=O)[O-])Cc1cc([N+](=O)[O-])ccc1[O-])CC(=O)[O-].[Mn+2].[Na+].[Na+] [Compound 13, Na2[Mn^IIHBET-NO2]]

Relaxivity r1 at 0.47T (per Mn) ([3]; 0.47T, ionic (per Mn)): 3.60 mM⁻¹ s⁻¹
Relaxivity r1 at 1.4T (per Mn) ([3]; 1.4T, ionic (per Mn)): 2.80 mM⁻¹ s⁻¹
Relaxivity r1 at 9.4T (per Mn) ([3]; 9.4T, ionic (per Mn)): 3.65 mM⁻¹ s⁻¹
Relaxivity r1 at 11.7T (per Mn) ([3]; 11.7T, ionic (per Mn)): 3.05 mM⁻¹ s⁻¹
Molecule: Na[Mn(TyOH-EDTA)] [Compound 52]

r1 (relaxivity of manganese complexes) [1]: 3.11 mM⁻¹ s⁻¹
Half-cell potential vs. normal hydrogen electrode (NHE) [4]: 344 mV
pKa for ionization of the phenol [2]: 7.91
Molecule: COc1ccc([O-])c(CN(CCN(CC(=O)[O-])CC(=O)[O-])CC(=O)[O-])c1.[Mn+2].[Na+].[Na+] [Compound 9, Na2[Mn^IIHBET-OMe]]

half-cell potentials (Mn^II/Mn^III) ([4]; irreversible oxidation / quasi-reversible reduction peaks, TRIS buffer pH 7.4): 0.016 V
Molecule: O=C([O-])CN(CCN(CC(=O)[O-])Cc1ccccc1[O-])Cc1ccccc1[O-].[Mn+3] [Mn^III-HBED, reference compound]

Relaxivities r1 at 1.41T ([1]; 1.41T, 37° C., pH 7.4 Tris buffer): 2.50 mM⁻¹ s⁻¹
stability of solutions [5]: indefinitely stable
Molecule: [Mn(CyP3A)] [Compound 41]

r1 (relaxivity of manganese complexes) [1]: 0.34 mM⁻¹ s⁻¹
Half-cell potential vs. normal hydrogen electrode (NHE) [4]: 476 mV
Molecule: O=C([O-])CN(CCN(CC(=O)[O-])Cc1cc([N+](=O)[O-])ccc1[O-])CC(=O)[O-].[Mn+3].[Na+] [Compound 14, Na[Mn^IIIHBET-NO2]]

r1 (relaxivity of manganese complexes) [1]: 2.30 mM⁻¹ s⁻¹
Molecule: O=C([O-])CN(CC(=O)[O-])C1CCCCC1N(CC(=O)[O-])Cc1cc([N+](=O)[O-])ccc1[O-].[Mn+2].[Na+].[Na+] (racemic) [Compound 30, Na2[Mn^IIcycHBET-NO2)]]

r1 (relaxivity of manganese complexes) [1]: 1.56 mM⁻¹ s⁻¹
Half-cell potential vs. normal hydrogen electrode (NHE) [4]: 365 mV
Molecule: O=C([O-])CN(CC(=O)[O-])C1CCCCC1N(CC(=O)[O-])Cc1ccccc1[O-].[Mn+3].[Na+] (racemic) [Compound 21, Na[Mn^IIIcycHBET]]

Relaxivity r1 at 0.47T (per Mn) ([3]; 0.47T, ionic (per Mn)): 9.07 mM⁻¹ s⁻¹
Relaxivity r1 at 0.47T per molecule ([3]; 0.47T, molecular (per molecule, 6 Mn)): 54.4 mM⁻¹ s⁻¹
Relaxivity r1 at 1.4T (per Mn) ([3]; 1.4T, ionic (per Mn)): 9.28 mM⁻¹ s⁻¹
Relaxivity r1 at 1.4T per molecule ([3]; 1.4T, molecular (per molecule, 6 Mn)): 55.7 mM⁻¹ s⁻¹
Relaxivity r1 at 4.7T (per Mn) ([3]; 4.7T, ionic (per Mn)): 6.54 mM⁻¹ s⁻¹
Relaxivity r1 at 4.7T per molecule ([3]; 4.7T, molecular (per molecule, 6 Mn)): 39.2 mM⁻¹ s⁻¹
Relaxivity r1 at 9.4T (per Mn) ([3]; 9.4T, ionic (per Mn)): 4.94 mM⁻¹ s⁻¹
Relaxivity r1 at 9.4T per molecule ([3]; 9.4T, molecular (per molecule, 6 Mn)): 29.6 mM⁻¹ s⁻¹
Relaxivity r1 at 11.7T (per Mn) ([3]; 11.7T, ionic (per Mn)): 3.57 mM⁻¹ s⁻¹
Relaxivity r1 at 11.7T per molecule ([3]; 11.7T, molecular (per molecule, 6 Mn)): 21.4 mM⁻¹ s⁻¹
Molecule: Mn6[N3P3-(TyOH-EDTA)6] [Compound 55]

r1 (relaxivity of manganese complexes) [1]: 3.26 mM⁻¹ s⁻¹
pKa for ionization of the phenol [2]: 7.95
Molecule: O=C([O-])CN(CC(=O)[O-])C1CCCCC1N(CC(=O)[O-])Cc1ccccc1[O-].[Mn+2].[Na+].[Na+] (racemic) [Compound 20, Na2[Mn^IIcycHBET]]

Half-cell potential vs. normal hydrogen electrode (NHE) [4]: 488 mV
Molecule: O=C([O-])CN(CC(=O)[O-])C1CCCCC1N(CC(=O)[O-])Cc1cc([N+](=O)[O-])ccc1[O-].[Mn+3].[Na+] (racemic) [Compound 31, Na[Mn^IIIcycHBET-NO2]]

T1 relaxivities ([1]; 1.4 T, Tris buffered saline pH 7.4, 37° C.): 1.05 mM⁻¹ s⁻¹
r1 (relaxivity of manganese complexes) [1]: 1.05 mM⁻¹ s⁻¹
stability in phosphate and carbonate buffers [7]: stable
Molecule: O=C([O-])CN(CCN(CC(=O)[O-])Cc1ccccc1[O-])CC(=O)[O-].[Mn+3].[Na+] [Compound 5, Na[Mn^IIIHBET]]
overall second-order rate constant of reduction by glutathione [6]: (3.8±0.3)×10^−1 M^−1 s^−1
